# Reference: paper PMC5882964, “Aspermerodione, a novel fungal metabolite with an unusual 2,6-dioxabicyclo[2.2.1]heptane skeleton, as an inhibitor of penicillin-binding protein 2a” (Scientific Reports, 2018)
# Biological target: T1, penicillin-binding protein 2a (PBP2a) (Staphylococcus aureus, UniProt Q7DHH4)
# T1 construct: gene mecA; residues 23-668, pET28a, from mecA of Staphylococcus aureus ATCC 43300
# Assay: microscale thermophoresis (MST) with labelled recombinant PBP2a
# T1 sequence (Q7DHH4 entry or part of it): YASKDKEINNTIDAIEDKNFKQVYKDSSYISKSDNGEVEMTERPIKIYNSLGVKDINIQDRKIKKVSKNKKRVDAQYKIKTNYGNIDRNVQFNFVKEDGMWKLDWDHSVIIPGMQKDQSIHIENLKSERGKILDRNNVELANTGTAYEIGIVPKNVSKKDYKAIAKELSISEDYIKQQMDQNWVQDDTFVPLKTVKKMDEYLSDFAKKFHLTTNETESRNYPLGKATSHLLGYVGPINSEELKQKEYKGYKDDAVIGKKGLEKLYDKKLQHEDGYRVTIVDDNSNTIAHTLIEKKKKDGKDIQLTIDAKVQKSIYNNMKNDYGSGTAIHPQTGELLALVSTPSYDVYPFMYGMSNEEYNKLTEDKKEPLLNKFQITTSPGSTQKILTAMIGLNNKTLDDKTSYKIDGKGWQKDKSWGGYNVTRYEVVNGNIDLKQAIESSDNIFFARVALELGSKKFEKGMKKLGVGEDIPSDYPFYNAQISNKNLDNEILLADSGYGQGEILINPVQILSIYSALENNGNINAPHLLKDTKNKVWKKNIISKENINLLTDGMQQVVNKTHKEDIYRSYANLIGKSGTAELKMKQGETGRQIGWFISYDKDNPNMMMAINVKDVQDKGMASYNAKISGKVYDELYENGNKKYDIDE
smiles,measurement,value
"COC(=O)C1=C[C@]2(C)C[C@@]34CC[C@H]5C(C)(C)C(=O)C=C[C@]5(C)[C@]35OC[C@]14[C@](C)(CC2=O)O5 [compound 1, aspermerodione]",Kd,18.4 ± 1.29 µM
